{
  "source": "patent US11666630B2",
  "about": "“Polypeptides for managing viral infections” (priority 2016, dated 2023)",
  "key": {"DENV 3": {"system": "DENV 3", "test": "FFA of DENV 3 incubated with peptide"}, "H3N1": {"system": "H3N1", "format": "cell-based, influenza virus"}, "[1]": {"system": "Recombinant hemagglutinins from three H3 viruses", "format": "binding, influenza virus", "details": "biotinylated Yodha peptide, streptavidin PE detection"}, "H3N2": {"system": "H3N2", "format": "cell-based, human influenza virus", "details": "incubated with virus at 37° C. for 1 hour, MDCK cells"}, "ZIKV [2]": {"system": "ZIKV", "test": "Transmission electron microscopy of peptide-treated ZIKV", "details": "200 μM peptide, 10 min treatment"}, "influenza viruses": {"system": "influenza viruses", "format": "cell-based, influenza virus"}, "ZIKV (PRVABC59 strain)": {"system": "ZIKV (PRVABC59 strain)", "details": "for reduction of ZIKV: dose escalation, FFA; for activity of truncated and mutant Yodha peptides against ZIKV compared with parent peptide: FIG. 7E"}, "H1N1": {"system": "H1N1", "format": "cell-based, human influenza virus", "details": "incubated with virus at 37° C. for 1 hour, MDCK cells"}, "[3]": {"system": "H7 avian influenza hemagglutinin", "format": "binding", "details": "biotinylated Yodha peptide, streptavidin PE detection"}, "[4]": {"system": "H9 avian influenza hemagglutinin", "format": "binding", "details": "biotinylated Yodha peptide, streptavidin PE detection"}, "DENV 1": {"system": "DENV 1", "test": "FFA of DENV 1 incubated with peptide"}, "PRVABC ZIKV": {"system": "PRVABC ZIKV", "test": "ZIKV infection of anti-Ifnar1 mAb treated mice, viremia and viral burden by real time PCR"}, "Clade A HIV": {"system": "Clade A HIV", "test": "HIV inhibition, graded doses of peptide", "format": "cell-based", "details": "40 uM peptide", "description": "(§1) FIG. 10A. […] Clades A, B and C HIV viruses were exposed to graded doses (5 um-160 uM) of either Yodha peptide or control OVA peptide."}, "Clade C HIV": {"system": "Clade C HIV", "test": "HIV inhibition, graded doses of peptide", "format": "cell-based", "details": "40 uM peptide", "description": "as §1"}, "Clade B HIV": {"system": "Clade B HIV", "test": "HIV inhibition, graded doses of peptide", "format": "cell-based", "details": "40 uM peptide", "description": "as §1"}, "DENV 2": {"system": "DENV 2", "test": "FFA of DENV 2 incubated with peptide"}, "H1N2": {"system": "H1N2", "format": "cell-based, influenza virus"}, "DENV 4": {"system": "DENV 4", "test": "FFA of DENV 4 incubated with peptide"}, "[5]": {"system": "H2 avian influenza hemagglutinin", "format": "binding", "details": "biotinylated Yodha peptide, streptavidin PE detection"}, "[6]": {"system": "H5 avian influenza hemagglutinin", "format": "binding", "details": "biotinylated Yodha peptide, streptavidin PE detection"}, "ZIKV [7]": {"system": "ZIKV", "test": "Peptide treatment of Vero cells already infected with ZIKV, FFU assay of culture supernatants", "format": "cell-based, Zika virus", "details": "for ZIKV in culture supernatant: 3 hours post-infection, peptide 40 μM"}, "ZIKV (PRVABC59)": {"system": "ZIKV (PRVABC59)", "test": "Immunofluorescence of ZIKV envelope in Vero cells", "format": "cell-based, Zika virus", "details": "ZIKV exposed to peptide before infection"}, "ZIKV [8]": {"system": "ZIKV", "test": "ZIKV entry into Vero cells, viral RNA by qRT-PCR", "details": "ZIKV pre-incubated with 200 μM peptide"}},
  "note": "Entries after “also recorded” stand apart in the source; their conditions may differ. Like-named read-outs stand apart in the source and are kept apart here. Peptide text beside a SMILES is read from it.",
  "data": [
    {"compound": "CC[C@H](C)[C@H](NC(=O)[C@@H](NC(=O)CNC(=O)[C@H](CC(C)C)NC(=O)[C@H](Cc1ccccc1)NC(=O)[C@H](Cc1ccccc1)NC(=O)[C@H](CC(C)C)NC(=O)[C@H](CC(C)C)NC(=O)[C@H](CC(C)C)NC(=O)[C@H](CCSC)NC(=O)[C@@H](N)CO)[C@@H](C)O)C(=O)N[C@@H](CO)C(=O)N[C@@H](CC(C)C)C(=O)N[C@@H](CO)C(=O)N[C@@H](CC(C)C)C(=O)N[C@@H](CS)C(=O)N[C@@H](CCC(N)=O)C(=O)N[C@@H](CC(=O)O)C(=O)N[C@@H](CC(=O)O)C(=O)N[C@@H](CCC(N)=O)C(=O)N[C@@H](CCC(=O)O)C(=O)N[C@@H](CCCNC(=N)N)C(=O)N[C@@H](CS)C(=O)O", "note": "[Yodha peptide] (H-SMLLLFFLGTISLSLCQDDQERC-OH; N-terminus and C-terminus assumed)", "values": [
      {"measurement": "virucidal activity against DENV 3", "setting": "DENV 3", "value": "virucidal; also recorded: neutralizes"},
      {"measurement": "dose needed for neutralization of DENV 3", "setting": "DENV 3; 50 μM versus 160 μM peptide", "value": "required higher dose"},
      {"measurement": "virucidal activity against H3N1", "setting": "H3N1", "value": "virucidal"},
      {"measurement": "binding to HA from H3 viruses", "setting": "[1]", "value": "binds"},
      {"measurement": "virucidal activity against H3N2", "setting": "H3N2", "value": "virucidal; also recorded: neutralizes"},
      {"measurement": "morphology of ZIKV particles (electron microscopy)", "setting": "ZIKV [2]", "value": "disruption of viral particles"},
      {"measurement": "activity against subtypes of influenza viruses", "setting": "influenza viruses", "value": "effective against all subtypes of influenza viruses; also recorded: effective against may subtypes of influenza viruses"},
      {"measurement": "time of exposure to virus within which the virus is neutralized", "setting": "ZIKV (PRVABC59 strain)", "value": "≤ 5", "unit": "min"},
      {"measurement": "reduction of ZIKV", "setting": "ZIKV (PRVABC59 strain); 10 μM peptide", "value": 35, "unit": "%"},
      {"measurement": "reduction of ZIKV", "setting": "ZIKV (PRVABC59 strain); 20 μM peptide", "value": 50, "unit": "%"},
      {"measurement": "reduction of ZIKV", "setting": "ZIKV (PRVABC59 strain); 40 μM peptide", "value": 65, "unit": "%"},
      {"measurement": "reduction of ZIKV", "setting": "ZIKV (PRVABC59 strain); 80 μM peptide", "value": 80, "unit": "%"},
      {"measurement": "reduction of ZIKV", "setting": "ZIKV (PRVABC59 strain); 160 μM peptide", "value": 90, "unit": "%"},
      {"measurement": "IC50", "setting": "ZIKV (PRVABC59 strain); PRVABC59 strain, 2 h", "value": 20, "unit": "µM"},
      {"measurement": "virucidal activity against H1N1", "setting": "H1N1", "value": "virucidal; also recorded: neutralizes"},
      {"measurement": "binding to H7 hemagglutinin", "setting": "[3]", "value": "binds"},
      {"measurement": "binding to H9 hemagglutinin", "setting": "[4]", "value": "binds"},
      {"measurement": "virucidal activity against DENV 1", "setting": "DENV 1", "value": "virucidal; also recorded: neutralizes"},
      {"measurement": "neutralization of DENV 1", "setting": "DENV 1; 50 μM peptide", "value": "easily neutralized; also recorded: effective"},
      {"measurement": "ZIKV viremia in serum", "setting": "PRVABC ZIKV; day 3 post-infection", "value": "reduces"},
      {"measurement": "ZIKV viral burden in tissues", "setting": "PRVABC ZIKV; day 6, eye and spleen", "value": "reduces"},
      {"measurement": "inhibition of clade A HIV", "setting": "Clade A HIV", "value": "efficiently inhibited"},
      {"measurement": "inhibition of clade C HIV", "setting": "Clade C HIV", "value": "efficiently inhibited"},
      {"measurement": "inhibition of clade B HIV", "setting": "Clade B HIV", "value": "efficiently inhibited"},
      {"measurement": "virucidal activity against DENV 2", "setting": "DENV 2", "value": "virucidal; also recorded: neutralizes"},
      {"measurement": "neutralization of DENV 2", "setting": "DENV 2; 50 μM peptide", "value": "easily neutralized; also recorded: effective"},
      {"measurement": "virucidal activity against H1N2", "setting": "H1N2", "value": "virucidal"},
      {"measurement": "higher dose required to be effective against DENV 4", "setting": "DENV 4", "value": 160, "unit": "µM"},
      {"measurement": "virucidal activity against DENV 4", "setting": "DENV 4", "value": "virucidal; also recorded: neutralizes"},
      {"measurement": "neutralization of DENV 4", "setting": "DENV 4; 50 μM peptide", "value": "easily neutralized; also recorded: effective"},
      {"measurement": "binding to H2 hemagglutinin", "setting": "[5]", "value": "binds"},
      {"measurement": "binding to H5 hemagglutinin", "setting": "[6]", "value": "binds"},
      {"measurement": "reduction in ZIKV production", "setting": "ZIKV [7]; 48 and 72 hours post-infection, peptide 40 μM added after infection", "value": "60-70%"},
      {"measurement": "ZIKV in culture supernatant", "setting": "ZIKV [7]", "value": "not detected"},
      {"measurement": "ZIKV titers in the supernatants", "setting": "ZIKV [7]; peptide 40 μM added after infection", "value": "significantly reduced"},
      {"measurement": "expression of ZIKV envelope in Vero cells (immunofluorescence)", "setting": "ZIKV (PRVABC59)", "value": "decreased expression of ZIKV envelope"}
    ]},
    {"compound": "OVA257-264 peptide (ESIINFEK; UniProt P01012 257-264, looked up, fragment) [OVA peptide, control peptide (Invivogen), reference compound]", "values": [
      {"measurement": "morphology of ZIKV particles (electron microscopy)", "setting": "ZIKV [2]", "value": "intact virions"},
      {"measurement": "amount of ZIKV RNA detected versus virus-only samples", "setting": "ZIKV [8]", "value": "Comparable amounts"},
      {"measurement": "ZIKV in culture supernatant", "setting": "ZIKV [7]", "value": "not detected"},
      {"measurement": "expression of ZIKV envelope in Vero cells (immunofluorescence)", "setting": "ZIKV (PRVABC59)", "value": "no such effect"}
    ]},
    {"compound": "PMLLLFFLGTISLSLCQ [Short 12 peptide]", "values": [
      {"measurement": "efficiency against DENV3 infection compared with full length Yodha peptide", "setting": "DENV 3; dose escalation", "value": "more efficient"},
      {"measurement": "activity of truncated and mutant Yodha peptides against ZIKV compared with parent peptide", "setting": "ZIKV (PRVABC59 strain)", "value": "significantly improved activity"}
    ]},
    {"compound": "PMLLLFFLGTISLSLCQDDQERC [S 1P Yodha]", "values": [
      {"measurement": "activity of truncated and mutant Yodha peptides against ZIKV compared with parent peptide", "setting": "ZIKV (PRVABC59 strain)", "value": "significantly more effective"}
    ]},
    {"compound": "PMLLLFFLGTISLSLCQEEERGA [Variant 12]", "values": [
      {"measurement": "effect against ZIKV relative to Yodha peptide", "setting": "ZIKV (PRVABC59 strain); FIG. 7C", "value": 1.6, "unit": "fold"}
    ]},
    {"compound": "SMLLLFFAGTISLSLCQDDQERC [peptide 8]", "values": [
      {"measurement": "virucidal activity of alanine-scanning mutants compared with Yodha peptide", "setting": "ZIKV (PRVABC59 strain); Yodha set as zero, FIG. 6B", "value": "statistically significant (p=0.02) antiviral activity than the parental peptide"}
    ]},
    {"compound": "SMLLLFFLGTISLSLCQ [short Yodha peptide]", "values": [
      {"measurement": "activity of truncated and mutant Yodha peptides against ZIKV compared with parent peptide", "setting": "ZIKV (PRVABC59 strain)", "value": "significantly improved activity"}
    ]}
  ]
}
